Assay results from article PMC9774391 (ACS Omega, 2022).

Tests used:
AChE = AChE (Homo sapiens, UniProt P22303); experiment: biochemical; conditions: for inhibition at 1000 µM: 10^–3 M; for inhibition at 100 µM: 10^–4 M; for inhibition at 10 µM: 10^–5 M; for inhibition at 1 µM: 10^–6 M; for inhibition at 0.1 µM: 10^–7 M; for inhibition at 0.01 µM: 10^–8 M; for inhibition at 0.001 µM: 10^–9 M
Procedure: (§1) According to the modified Ellman approach outlined in our team’s earlier work, the AChE and BChE inhibitory activities of the obtained compounds were evaluated.[18]−[21]

BChE [1] = target: T1, BChE (Homo sapiens, UniProt P06276); experiment: biochemical; conditions: for inhibition at 1000 µM: 10^–3 M; for inhibition at 100 µM: 10^–4 M; for inhibition at 10 µM: 10^–5 M; for inhibition at 1 µM: 10^–6 M; for inhibition at 0.1 µM: 10^–7 M; for inhibition at 0.01 µM: 10^–8 M; for inhibition at 0.001 µM: 10^–9 M
T1 sequence (P06276 29-602): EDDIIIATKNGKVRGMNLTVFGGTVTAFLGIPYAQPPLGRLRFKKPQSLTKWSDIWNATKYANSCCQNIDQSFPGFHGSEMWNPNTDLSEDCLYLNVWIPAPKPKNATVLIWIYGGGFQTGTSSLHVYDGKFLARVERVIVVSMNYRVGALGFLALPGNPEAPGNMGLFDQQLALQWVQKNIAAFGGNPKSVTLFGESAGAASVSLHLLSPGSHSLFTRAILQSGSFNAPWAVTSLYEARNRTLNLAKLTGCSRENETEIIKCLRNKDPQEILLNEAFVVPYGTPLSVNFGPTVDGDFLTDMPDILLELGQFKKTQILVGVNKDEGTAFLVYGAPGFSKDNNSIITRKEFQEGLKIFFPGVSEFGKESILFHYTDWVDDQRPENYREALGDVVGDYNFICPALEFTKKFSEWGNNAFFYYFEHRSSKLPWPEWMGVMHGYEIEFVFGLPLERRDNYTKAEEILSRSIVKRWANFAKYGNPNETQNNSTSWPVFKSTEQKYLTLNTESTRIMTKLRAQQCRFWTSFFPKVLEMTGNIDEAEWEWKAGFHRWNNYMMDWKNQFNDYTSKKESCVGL
Procedure: as §1

MAO-A = target: T2, MAO-A (Homo sapiens, UniProt P21397); experiment: In vitro MAO-A inhibition assay (fluorometric); type: biochemical; conditions: for inhibition at 1000 µM: 10^–3 M; for inhibition at 100 µM: 10^–4 M
T2 sequence (P21397 1-527): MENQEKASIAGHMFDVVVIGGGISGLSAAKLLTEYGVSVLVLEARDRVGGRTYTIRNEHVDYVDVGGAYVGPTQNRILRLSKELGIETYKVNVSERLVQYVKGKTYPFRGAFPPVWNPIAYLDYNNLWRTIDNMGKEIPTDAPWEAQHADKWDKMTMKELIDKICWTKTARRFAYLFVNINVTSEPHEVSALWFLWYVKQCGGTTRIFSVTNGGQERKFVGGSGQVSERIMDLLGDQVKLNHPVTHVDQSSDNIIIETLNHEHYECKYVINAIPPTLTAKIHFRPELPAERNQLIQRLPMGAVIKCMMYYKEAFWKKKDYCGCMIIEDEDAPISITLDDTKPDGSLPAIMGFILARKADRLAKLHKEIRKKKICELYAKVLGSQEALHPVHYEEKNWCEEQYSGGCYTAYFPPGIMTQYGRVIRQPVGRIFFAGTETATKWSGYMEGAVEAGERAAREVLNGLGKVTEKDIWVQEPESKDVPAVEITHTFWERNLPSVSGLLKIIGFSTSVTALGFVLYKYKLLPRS

MAO-B [2] = target: T3, MAO-B (Homo sapiens, UniProt P27338); experiment: In vitro MAO-B inhibition assay (fluorometric); type: biochemical; conditions: for inhibition at 1000 µM: 10^–3 M; for inhibition at 100 µM: 10^–4 M; for inhibition at 10 µM: 10^–5 M; for inhibition at 1 µM: 10^–6 M; for inhibition at 0.1 µM: 10^–7 M; for inhibition at 0.01 µM: 10^–8 M; for inhibition at 0.001 µM: 10^–9 M
T3 sequence (P27338 1-520): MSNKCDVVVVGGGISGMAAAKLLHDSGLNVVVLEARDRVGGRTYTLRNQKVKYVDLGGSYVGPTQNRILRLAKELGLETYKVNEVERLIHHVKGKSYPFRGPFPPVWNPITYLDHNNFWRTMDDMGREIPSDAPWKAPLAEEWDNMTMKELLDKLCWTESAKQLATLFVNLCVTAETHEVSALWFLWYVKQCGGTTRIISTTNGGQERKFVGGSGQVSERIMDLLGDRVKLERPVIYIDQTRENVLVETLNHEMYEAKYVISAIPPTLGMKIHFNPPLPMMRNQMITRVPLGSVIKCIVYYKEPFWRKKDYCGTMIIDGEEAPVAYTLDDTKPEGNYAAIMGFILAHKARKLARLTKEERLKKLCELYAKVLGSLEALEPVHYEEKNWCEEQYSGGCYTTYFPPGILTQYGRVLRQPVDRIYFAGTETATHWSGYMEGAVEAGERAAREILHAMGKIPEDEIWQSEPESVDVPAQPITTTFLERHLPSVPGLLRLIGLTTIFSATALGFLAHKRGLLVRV

BChE [3] = target: T1, BChE; experiment: Enzyme kinetics on BChE (Lineweaver–Burk); type: biochemical
Procedure: (§2) The experimental procedures used in the kinetic investigations were identical to those used in the inhibition experiments. […]. Acetylthiocholine iodide (ATC) and butyrylthiocholine iodide (BTC) solutions were utilized as the substrates for the ChE enzymes, with serial dilutions at six different concentrations (600, 300, 150, 75, 37.5, and 18.75 μM). The tyramine substrate solution (concentrations ranging from 20 to 0.625 μM) was produced for the MAO enzymes at six different concentrations. Separate measurements were conducted both with and without an inhibitor. Using the Microsoft Office Excel 2013 program, the resulting absorbance values were compared to various substrate concentrations, and Lineweaver–Burk plots were created.[19]−[22]
(§3) The absorbance data from the experiments and the substrate concentrations were used to generate Lineweaver–Burk plots. The graphic’s x-axis stands for 1/[S] […] […]. The intersection of these four lines on the diagram was used to define the type of substrate and inhibitor reaction against the enzyme.
(§4) Reversible and irreversible inhibition of enzymes are the two categories that inhibition is commonly subdivided into. In irreversible inhibition, the inhibitor either creates a recalcitrant complex structure or establishes a covalent bond with the enzyme. […]

Beta Amyloid 1–42 (Aβ42) = target: T4, Beta Amyloid 1–42 (Aβ42) (Homo sapiens, UniProt P05067); experiment: Beta Amyloid 1–42 (Aβ42) inhibitor screening assay; type: biochemical; conditions: for inhibition at 100 µM: 10^–4 M
T4 construct: The Beta Amyloid 1–42 (Aβ42) Ligand Screening Assay kit; purchased BioVision, Milpitas, CA
T4 sequence (P05067 672-713 limits assumed): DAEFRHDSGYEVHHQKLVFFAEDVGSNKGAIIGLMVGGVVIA
Excerpt: The Beta Amyloid 1–42 (Aβ42) Ligand Screening Assay kit (BioVision, Milpitas, CA) technique based on the fluorometric approach served as the basis for the experimental process.[21],[28],[29]

Cytotoxicity test (MTT) = type: cell-based; conditions: NIH/3T3 mouse embryonic fibroblast cells (ATCC CRL-1658), NIH/3T3 mouse fibroblast healthy cell line
Procedure: The NIH/3T3 cells were incubated according to the manufacturer’s recommendations. In 96-well plates, NIH/3T3 cells were seeded at a density of 1 × 10^4 cells per well. The MTT test was conducted in line with the previously mentioned standards.[19],[22],[23],[28],[30]

MAO-B [4] = target: T3, MAO-B; experiment: Enzyme kinetics on MAO-B (Lineweaver–Burk); type: biochemical
Procedure: as §2, §3, §4

[5] = DPPH free-radical scavenging activity assay; conditions: serial dilution 10^–3–10^–9 M; read-out: IC50 on DPPH antioxidant activity
Procedure: This approach is based on evaluating the free-radical scavenging abilities of the stable 1,1-diphenyl-2-picrylhydrazyl (DPPH) radical. To create the DPHH solution, 9.86 mg of DPPH was weighed and diluted to 25 mL with methanol. The test wells were then filled with 100 μL of the DPPH solution and 100 μL of the test solutions. Only 200 μL of methanol was used for the blank reading, while the control reading required the usage of 100 μL each of methanol and the DPPH solution. Following incubation, a spectrophotometric measurement at 517 nm was carried out.[26],[27]

[6] = read-out: % β-amyloid plaque inhibition

AChE, sequence (P22303 32-614): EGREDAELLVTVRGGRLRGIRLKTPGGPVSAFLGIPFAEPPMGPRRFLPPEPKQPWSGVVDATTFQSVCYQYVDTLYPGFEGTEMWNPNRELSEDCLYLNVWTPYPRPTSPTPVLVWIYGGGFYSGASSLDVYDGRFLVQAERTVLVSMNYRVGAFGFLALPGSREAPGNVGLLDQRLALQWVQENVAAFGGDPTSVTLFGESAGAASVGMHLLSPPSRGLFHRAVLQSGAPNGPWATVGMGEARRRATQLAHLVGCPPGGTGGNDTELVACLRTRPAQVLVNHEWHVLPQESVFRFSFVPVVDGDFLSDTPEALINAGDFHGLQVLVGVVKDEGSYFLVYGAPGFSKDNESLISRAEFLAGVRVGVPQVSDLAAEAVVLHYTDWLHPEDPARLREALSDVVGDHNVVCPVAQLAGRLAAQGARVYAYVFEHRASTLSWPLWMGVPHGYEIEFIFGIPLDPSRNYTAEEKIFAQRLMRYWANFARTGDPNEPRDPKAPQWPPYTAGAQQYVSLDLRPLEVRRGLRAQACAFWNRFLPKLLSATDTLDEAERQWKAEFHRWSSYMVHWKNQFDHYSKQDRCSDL

## COc1cc2c(cc1OC)C(=O)/C(=C/c1ccc(NC(=O)CN(C)CCCN(C)C)cc1)C2 [D39]
AChE
  IC50: 45.8 ± 0.9 nM
  inhibition at 1000 µM: 92.6 ± 1.62%
  inhibition at 100 µM: 88.7 ± 1.19%
  inhibition at 10 µM: 81.7 ± 1.16%
  inhibition at 1 µM: 73.3 ± 0.952%
  inhibition at 0.1 µM: 64.3 ± 0.687%
  inhibition at 0.01 µM: 40.2 ± 0.528%
  inhibition at 0.001 µM: 20.5 ± 0.492%
BChE [1]
  IC50: 75 ± 3.2 nM
  inhibition at 1000 µM: 92.8 ± 1.36%
  inhibition at 100 µM: 87.3 ± 1.25%
  inhibition at 10 µM: 81.4 ± 1.33%
  inhibition at 1 µM: 73.7 ± 1.15%
  inhibition at 0.1 µM: 55.4 ± 0.678%
  inhibition at 0.01 µM: 34.7 ± 0.511%
  inhibition at 0.001 µM: 21.6 ± 0.485%
MAO-A
  inhibition at 1000 µM: 89.8 ± 1.44%
  inhibition at 100 µM: 36.2 ± 0.756%
MAO-B [2]
  IC50: 39.3 ± 1.1 nM
  inhibition at 1000 µM: 95.3 ± 1.06%
  inhibition at 100 µM: 87.2 ± 1.82%
  inhibition at 10 µM: 84.8 ± 1.64%
  inhibition at 1 µM: 78.6 ± 1.25%
  inhibition at 0.1 µM: 60.2 ± 0.956%
  inhibition at 0.01 µM: 36.2 ± 0.488%
  inhibition at 0.001 µM: 25.6 ± 0.359%
BChE [3]; Lineweaver–Burk plots
  type of inhibition of BChE: mixed inhibition
BChE [3]; secondary plot of Lineweaver–Burk data, read-out: steady-state inhibition constant (Ki), BChE
  Ki: 61.7 nM
Beta Amyloid 1–42 (Aβ42); 10^–3 M, read-out: % β-amyloid plaque inhibition
  inhibition at 1000 µM: ≥ 80%
Beta Amyloid 1–42 (Aβ42); [6]
  inhibition at 100 µM: 69.8 ± 0.778%
Beta Amyloid 1–42 (Aβ42); read-out: IC50 on β-amyloid plaque aggregation
  IC50: 197 ± 7.9 nM
Cytotoxicity test (MTT)
  IC50: 12300 ± 416 nM

## COc1ccc2c(c1)C/C(=C\c1ccc(NC(=O)CN(C)CCCN(C)C)cc1)C2=O [D37]
AChE
  IC50: 48.2 ± 1.7 nM
  inhibition at 1000 µM: 92.5 ± 1.57%
  inhibition at 100 µM: 87.6 ± 1.68%
  inhibition at 10 µM: 83.5 ± 1.23%
  inhibition at 1 µM: 75.1 ± 1.08%
  inhibition at 0.1 µM: 61.5 ± 0.965%
  inhibition at 0.01 µM: 39.5 ± 0.489%
  inhibition at 0.001 µM: 19.7 ± 0.508%
BChE [1]
  IC50: 83.9 ± 3.4 nM
  inhibition at 1000 µM: 94.2 ± 1.39%
  inhibition at 100 µM: 89.7 ± 1.25%
  inhibition at 10 µM: 82.7 ± 1.01%
  inhibition at 1 µM: 71.4 ± 1.35%
  inhibition at 0.1 µM: 59.3 ± 0.754%
  inhibition at 0.01 µM: 32.5 ± 0.355%
  inhibition at 0.001 µM: 18.5 ± 0.471%
MAO-A
  inhibition at 1000 µM: 96.51 ± 0.736%
  inhibition at 100 µM: 37.8 ± 0.96%
MAO-B [2]
  IC50: 31.2 ± 0.8 nM
  inhibition at 1000 µM: 98.4 ± 1.63%
  inhibition at 100 µM: 91.6 ± 1.24%
  inhibition at 10 µM: 85.5 ± 1.12%
  inhibition at 1 µM: 78.3 ± 1.07%
  inhibition at 0.1 µM: 72.2 ± 1.1%
  inhibition at 0.01 µM: 40.1 ± 0.561%
  inhibition at 0.001 µM: 18.2 ± 0.418%
MAO-B [4]; Lineweaver–Burk plots
  type of inhibition of MAO-B: noncompetitive inhibition
MAO-B [4]; secondary plot of Lineweaver–Burk data, read-out: steady-state inhibition constant (Ki), MAO-B
  Ki: 29.7 nM
[5]
  IC50: 179 ± 7 nM
Beta Amyloid 1–42 (Aβ42); [6]
  inhibition at 100 µM: > 50%
Cytotoxicity test (MTT)
  IC50: 2290 ± 136 nM
